In general, IC50 refers to the concentration that gives 50% inhibition. A higher IC50 goes with weaker potency in that assay.

Like-named read-outs stand apart in the source and are kept apart here.

Type in all cases: cell-based, human
One test relates to NCIH2087 cells. Kind of test: Proliferation inhibition, CellTiter-Glo, NCIH2087. Conditions: Table D-2, NCIH2087 (BRAF L597V; KRAS Q61K), 3 days, read-out: Prolif. (proliferation EC50). On the procedure:
(§1) All cancer cell lines (A375, A101D, A2058, RKO, HT29 SK-MEL 30, IPC298, HepG2, HCT-116, Lovo, SW620, SW480, NCI-H358, NCI-H2122, Calu-6, NCIH2087, NCIH1755, NCIH1666 and Mewo) were obtained from ATCC and cultured in RPM1-1640 medium (Gibco) supplemented with 5% heat inactivated fetal bovine serum (FBS, Wisent) at 37° C. under 5% CO2. Cells were maintained in T175 flasks (Greiner). They were passaged by removing the culture medium, washing once in 10 mL of room temperature Phosphate Buffered Saline (PBS; Wisent) and incubating at 37° C. with 2 mL of 0.05% Trypsin (Thermo-Fisher). Trypsin was then inactivated by adding complete growth medium and the cells were then replated in a T175 culture dish at the appropriate dilution. All cell lines were routinely tested for mycoplasma contamination. Tissue type and mutational status of each cell line can be found in Table B.
(§2) CellTiter-Glo® viability analysis was conducted on cells plated in 100 μL of complete RPMI-1640 growth medium in 96-well flat-bottomed white opaque plates (Greiner or Croning) at a density indicated in Table E (for each CCL, number of cells plated per well of a 96-well plate to perform the CellTiter-Glo® cell viability assay). The cell density in cells/cm^2 would correspond to cell number divided by the area of one well of a 96-well plate (0.32 cm^2). […]
(§3) After 3 days of incubation, the growth media were removed by aspiration and 60 μL of diluted CellTiter-Glo® reagent (10 μL CellTiter-Glo® reagent+50 μL of PBS) was added to each well. […] Luminescence signals were then acquired on a Synergy Neo2 plate reader (Biotek).
(§4) The effect of each compound dilution on the proliferation of cancer cell lines was expressed in % inhibition and calculated as follows. […]
(§5) The ability of each compound to inhibit proliferation was expressed as a EC50 value obtained by plotting the effect values for each data point of a dilution series and fitting the obtained curves using a log(agonist) versus response—variable slope (four parameters) function using GraphPadPrism (V7.0) or Dotmatics Screening Ultra platform.

The test system of the next test is HepG2 cells. Kind of test: Proliferation inhibition, CellTiter-Glo, HepG2. Conditions: Table D-1, HepG2 (NRAS-Q61L), 3 days, read-out: Prolif. (proliferation EC50). As for the experimental part:
as §1, §2, §3, §4, §5
(ATP-based viability assays read luminescence as a measure of living cells.)

A further test deals with NCIH1755 cells. In words: Proliferation inhibition, CellTiter-Glo, NCIH1755. To be noted: Table D-2, NCIH1755 (BRAF G469A), 3 days, read-out: Prolif. (proliferation EC50). On the procedure: as §1, §2, §3, §4, §5
For the next test, the system named is pERK, SW480 cells. In words: Phospho-ERK inhibition, AlphaLISA p-ERK 1/2, SW480. To be noted: Table D-2; for IC50: SW480 (KRAS G12D); for pERK value in parentheses, % inhibition (Ymin): SW480, lowest point of IC50 curve. As for the experimental part:
as §1
(§6) (c) Measurement of Phospho-ERK Inhibition in Cultivated Human Cancer Cell Lines by the AlphaLISA® SureFire® Ultra™ p-ERK 1/2 (Thr2O2/Tyr204)
(§7) AlphaLISA® SureFire® Ultra™ p-ERK 1/2 (Thr202/Tyr204) analysis was conducted on cells plated in 100 μL of complete RPMI-1640 growth medium in 96-well flat-bottomed transparent dishes (Costar) at a density indicated in Table C. Cells were maintained overnight at 37° C. under 5% CO2 before treatment with compounds' dilution series for one hour. The cell density in cells/cm^2 corresponds to cell number divided by the area of one well of a 96-well plate (0.143 cm^2).
(§8) In a dilution series 100 μL/well of test substance dilution prepared in complete RPMI-1640 growth media was added to the cells. The dilution series is selected so that ten concentrations cover a range from 10 μM to 0.33 nM. If necessary, the initial concentration of 10 μM is increased to 100 μM or lowered to 1 μM (as in the case of A375 and H1666 cells, which are generally more sensitive to the compounds) and further dilution is carried out accordingly. The final concentration of DMSO in the assay is set at 0.5%.
(§9) After treatment, media was removed, and cells were lysed in 50 μL of 1× AlphaScreen Ultra Lysis Buffer (Perkin Elmer). The AlphaLISA® SureFire® Ultra™ p-ERK 1/2 (Thr202/Tyr204) (PerkinElmer) reactions were performed with 5 μL of cell lysate according to the manufacturer's specifications in 384-well proxyplates (Perkin Elmer) followed by overnight incubation of the reactions at room temperature in a humidified chamber. After completion of the reactions, the signals were recorded on an EnVision plate reader (Perkin Elmer) using built in AlphaLISA® settings.
(§10) The effect of each compound dilution on the pERK signal was expressed in % inhibition and calculated as follows. An internal 100% inhibition control (1 μM trametinib, cat. No. HY-10999; MedChem Express; CAS No. 871700-17-3) was included in each plate and used as a measure of pERK background. First, the value obtained for trametinib was subtracted from each data point. The average of DMSO (vehicle) controls (set as 0% inhibition) was established and used to calculate % inhibition:
(§11) The ability of each compound to inhibit pERK signal was expressed as an IC50 value obtained by plotting the inhibition values for each data point of a dilution series and fitting the obtained curves using a log(agonist) versus response—variable slope (four parameters) function using GraphPadPrism (V7.0) or Dotmatics Screening Ultra platform.
(§12) When present, paradoxical pERK induction is inferred from the negative % inhibition values observed in the pERK IC50 curves of a compound.
In general terms: Alpha assays give light when donor and acceptor beads are brought close together.

In a further test the test system is pERK, Mewo cells. Kind of test: Phospho-ERK inhibition, AlphaLISA p-ERK 1/2, Mewo. To be noted: Table D-2; for IC50: Mewo (NF1 LOF); for pERK value in parentheses, % inhibition (Ymin): Mewo, lowest point of IC50 curve. As for the experimental part: as §1, §6, §7, §8, §9, §10, §11, §12

Regarding `Cc1ccc2c(Nc3cccc(Cl)c3F)nccc2c1NC(=O)c1csc2c(N)ncnc12` [Belvarafenib, reference compound], the EC50 in the test on NCIH2087 cells (Homo sapiens, NCI-H2087, 72 h) was less than 300 nM; with HepG2 cells (Homo sapiens, 72 h), less than 300 nM; in the test with NCIH1755 cells (Homo sapiens, NCI-H1755, 72 h), greater than 3000 nM. Besides, the IC50 in the test on pERK, SW480 cells (Homo sapiens) was 30 to 300 nM; with pERK, Mewo cells (Homo sapiens), 30 to 300 nM. The “pERK value in parentheses, % inhibition (Ymin)” value (from here on “pERK value … % inhibition (Ymin)”) in the test on pERK, SW480 cells is on record as “(−100) %”; in the test with pERK, Mewo cells, “(−116) %”.
In the case of `Cc1c(F)cccc1S(=O)(=O)Nc1ccc(F)c(Nc2ncnc3sc(-n4cc(C(=O)N5C6CCC5CN(C)C6)c5ccccc54)nc23)c1F` [Example 44], the EC50 in the test with NCIH2087 cells, in the test with HepG2 cells and in the test on NCIH1755 cells was less than 300 nM in each case. In addition, the IC50 with pERK, SW480 cells is 30 to 300 nM; in the test with pERK, Mewo cells, less than 30 nM. Moreover, the “pERK value … % inhibition (Ymin)” value in the test on pERK, SW480 cells is listed as “(−4) %”; in the test on pERK, Mewo cells, “(3) %”.
Consider `N#CC1(c2cccc3c2ncn3-c2nc3c(Nc4c(F)ccc(NS(=O)(=O)c5cccc(Cl)c5Cl)c4F)ncnc3s2)CC1` [Example 122], for which the EC50 in the test on NCIH2087 cells, in the test with HepG2 cells and in the test with NCIH1755 cells was less than 300 nM in each case. Moreover, the half-maximal inhibitory concentration (IC50) in the test on pERK, SW480 cells was in the range of 30 to 300 nM; in the test on pERK, Mewo cells it was 30 to 300 nM. Besides, the “pERK value … % inhibition (Ymin)” value was “(5) %” in the test on pERK, SW480 cells and “(2) %” in the test on pERK, Mewo cells.

Source of the values: patent US20260137697A1, “THIAZOLO[5,4-D]PYRIMIDINE COMPOUNDS, COMPOSITIONS COMPRISING THEM AND USES THEREOF” (University de Montreal, priority 2022, published 2026).
